Results from PMC12531613, “Synthesis and Biological Evaluation of Novel 2‐(Piperidin‐4‐yl)‐1,2,3,4‐tetrahydroisoquinoline and 2‐(Piperidin‐4‐yl)decahydroisoquinoline Antimycotics” (Archiv Der Pharmazie, 2025).
Converted amounts (≈) assume the structure as drawn. Like-named read-outs stand apart in the source and are kept apart here.

Columns and labels:
Format in all cases: cell-based
Yarrowia lipolytica = assay: MIC100 microdilution assay against Yarrowia lipolytica
Experimental: In previous research we found a good correlation between MIC values against Yarrowia lipolytica and pathogenic Candida species.
Determination of MICs against Yarrowia lipolytica (DSMZ, Braunschweig, Germany) was carried out according to lit. Yarrowia lipolytica was cultivated in AC‐agar (Sigma Aldrich). Concentration of yeast cells was determined by photometer and adjusted to a turbidity of 0.5 according to McFarland standard at 600 nm. All substances were dissolved in DMSO or methanol.
Determination of MICs (minimal inhibitory concentration) against Yarrowia lipolytica was carried out according to Lit.^[13] Concentration of yeast cells was determined by photometer and adjusted to a turbitity of 0.5 according to McFarland Standard.

[1] = MTT cytotoxicity assay against HL 60 cells; conditions: human
Experimental: The cytotoxicity of the active compounds was checked in an MTT assay against human HL 60 cells. […] Although, this corresponds to the MIC range that would be needed in treatment, the values are within the range observed for commonly used antimycotics such as amorolfine and posaconazole. All active compounds were evaluated for their biopharmaceutical behavior and drug‐likeness using the online program SwissADME [26] and should show oral bioavailability according to the Lipinski rules of five.
HL‐60 cells (human leukemia cells, DSM No. ACC3) were obtained from DSMZ (German Collection of Microorganisms and Cell Cultures, Braunschweig, Germany) and cultivated in RPMI 1640 medium with 10% fetal bovine serum (FBS), both from PAA Laboratories, Cölbe, Germany) without the addition of antibiotics at 37°C in a humidified atmosphere containing 5% CO2. The assay was performed according to lit.

A. fumigatus (A65) = assay: MIC90 growth inhibition of molds (EUCAST), A. fumigatus (A65); conditions: Aspergillus fumigatus, RPMI 1640, 2% glucose, read by eye and microscopically
Experimental: Determination of MICs (minimal inhibitory concentration) against Candida species was carried out according to the European Committee of Antifungal Susceptibility Testing. Concentration of yeast cells was determined by photometer and adjusted to a turbidity of 0.5 according to McFarland standard. […] Growth inhibition of molds was determined by eye and microscopically, following EUCAST guidelines. […] All assays were carried out twice.

R. microsporus = assay: MIC90 growth inhibition of molds (EUCAST), R. microsporus; conditions: Rhizopus microsporus
Experimental: (§1) Determination of MICs (minimal inhibitory concentration) against Candida species was carried out according to the European Committee of Antifungal Susceptibility Testing. Concentration of yeast cells was determined by photometer and adjusted to a turbidity of 0.5 according to McFarland standard. MIC90 was determined by microdilution plate reader (Sunrise Tecan) at 450 nm, after 24 h incubation at 37°C. MIC90 was defined as the minimal concentration of chemical causing 90% growth inhibition, respectively. Growth inhibition of molds was determined by eye and microscopically, following EUCAST guidelines. All substances were dissolved in DMSO and diluted in RPMI 1640 medium, containing 2% glucose. All assays were carried out twice.

C. krusei = assay: MIC90 microdilution (EUCAST), C. krusei; conditions: Pichia kudriavzevii, 24 h
Experimental: as §1

A. fumigatus (R16) = assay: MIC90 growth inhibition of molds (EUCAST), A. fumigatus (R16); conditions: Aspergillus fumigatus
Experimental: as §1

A. fumigatus (R7) = assay: MIC90 growth inhibition of molds (EUCAST), A. fumigatus (R7); conditions: Aspergillus fumigatus
Experimental: as §1

C. albicans = assay: MIC90 microdilution (EUCAST), C. albicans; conditions: Candida albicans, 24 h
Experimental: as §1

C. glabrata = assay: MIC90 microdilution (EUCAST), C. glabrata; conditions: Nakaseomyces glabratus, 24 h
Experimental: as §1

R. arrhizus (oryzae) = assay: MIC90 growth inhibition of molds (EUCAST), R. arrhizus (oryzae); conditions: Rhizopus arrhizus
Experimental: as §1

[2] = 48 h, read-out: Biological Activity MIC Yarrowia lipolytica
[3] = HL-60 cells (human leukemia cells), HL 60 cell line, MTT assay, read-out: IC50 cytotoxicity
[4] = microdilution, 48 h, 25°C, 600 nm, read-out: MIC100
[5] = supplement table, MIC100, 48 h, 25°C, 600 nm, read-out: Biological Activity MIC Yarrowia lipolytica

CC(C)(C)OC(=O)N1CCC(N2CCc3ccccc3C2)CC1 [3a, tert‐Butyl 4‐(3,4‐dihydroisoquinolin‐2(1H)‐yl)piperidine‐1‐carboxylate]
MIC (Yarrowia lipolytica; [2]): > 100 µg/mL | MIC (Yarrowia lipolytica; 48 h, read-out: MIC100): > 100 µg/mL

COc1cc2c(cc1OC)CN(C1CCN(CCC(C)CCC=C(C)C)CC1)CC2 (racemic) [6j, (±)‐2‐[1‐(3,7‐Dimethyloct‐6‐en‐1‐yl)piperidin‐4‐yl]‐6,7‐dimethoxy‐1,2,3,4‐tetrahydroisoquinoline]
IC50 [1, 3]: 75 µg/mL (≈ 181 µM) | MIC (Yarrowia lipolytica; [2]): 3.1 µg/mL | MIC (Yarrowia lipolytica; 48 h, read-out: MIC100): 3.1 µg/mL | MIC (Yarrowia lipolytica; read-out: MIC100 (molar value in brackets)): 7.5 µM | MIC90 (A. fumigatus (A65)): > 32 µg/mL | MIC90 (R. microsporus): > 32 µg/mL | MIC90 (C. krusei): 32 µg/mL (≈ 77.2 µM) | MIC90 (A. fumigatus (R16)): > 32 µg/mL | MIC90 (A. fumigatus (R7)): > 32 µg/mL | MIC90 (C. albicans): > 32 µg/mL | MIC90 (C. glabrata): > 32 µg/mL | MIC90 (R. arrhizus (oryzae)): > 32 µg/mL

CCCCCCCCCCCC(=O)N1CCC(N2CCC3CCCCC3C2)CC1 (racemic) [5i, (±)‐1‐[4‐(Octahydroisoquinolin‐2(1H)‐yl)‐piperidin‐1‐yl]‐dodecan‐1‐one]
MIC (Yarrowia lipolytica; [2]): > 100 µg/mL | MIC (Yarrowia lipolytica; 48 h, read-out: MIC100): > 100 µg/mL

CCC(C)(C)c1ccc(CC(C)CN2C[C@@H](C)O[C@@H](C)C2)cc1 (some centres unmarked) [Amorolfine, reference compound]
IC50 [1, 3]: 17 µg/mL (≈ 53.5 µM)

CCCCCCCCCCCC(=O)N1CCC(N2CCc3cc(OC)c(OC)cc3C2)CC1 [5f, 1‐[4‐(6,7‐Dimethoxy‐3,4‐dihydroisoquinolin‐2(1H)‐yl)piperidin‐1‐yl]dodecan‐1‐one]
MIC (Yarrowia lipolytica; [2]): > 100 µg/mL | MIC (Yarrowia lipolytica; 48 h, read-out: MIC100): > 100 µg/mL

CCCCN1CCC(N2CCc3cc(OC)c(OC)cc3C2)CC1 [6d, 2‐(1‐Butylpiperidin‐4‐yl)‐6,7‐dimethoxy‐1,2,3,4‐tetrahydroisoquinoline]
IC50 [1, 3]: > 100 µg/mL | MIC (Yarrowia lipolytica; [2]): > 100 µg/mL | MIC (Yarrowia lipolytica; 48 h, read-out: MIC100): > 100 µg/mL | MIC90 (A. fumigatus (A65)): > 32 µg/mL | MIC90 (R. microsporus): > 32 µg/mL | MIC90 (C. krusei): > 32 µg/mL | MIC90 (A. fumigatus (R16)): > 32 µg/mL | MIC90 (A. fumigatus (R7)): > 32 µg/mL | MIC90 (C. albicans): > 32 µg/mL | MIC90 (C. glabrata): > 32 µg/mL | MIC90 (R. arrhizus (oryzae)): > 32 µg/mL

CCCCCCCC(=O)N1CCC(N2CCc3cc(OC)c(OC)cc3C2)CC1 [5e, 1‐[4‐(6,7‐Dimethoxy‐3,4‐dihydroisoquinolin‐2(1H)‐yl)‐piperidin‐1‐yl]‐octan‐1‐one]
MIC (Yarrowia lipolytica; [2]): > 100 µg/mL | MIC (Yarrowia lipolytica; 48 h, read-out: MIC100): > 100 µg/mL

COc1cc2c(cc1OC)CN(C1CCNCC1)CC2 [4b, 6,7‐Dimethoxy‐2‐(piperidin‐4‐yl)‐1,2,3,4‐tetrahydroisoquinoline]
MIC (Yarrowia lipolytica; [2]): > 100 µg/mL | MIC (Yarrowia lipolytica; 48 h, read-out: MIC100): > 100 µg/mL

CCCCN1CCC(N2CCC3CCCCC3C2)CC1 (racemic) [6g, (±)‐2‐(1‐Butylpiperidin‐4‐yl)‐decahydroisoquinoline]
IC50 [1]: > 100 µg/mL | MIC (Yarrowia lipolytica; [4]): > 100 µg/mL | MIC (Yarrowia lipolytica; [5]): > 100 µg/mL | MIC90 (A. fumigatus (A65)): > 32 µg/mL | MIC90 (R. microsporus; R. microsporus, RPMI 1640, 2% glucose, read by eye and microscopically, read-out: MIC90): > 32 µg/mL | MIC90 (C. krusei; C. krusei, RPMI 1640, 2% glucose, 37°C, duplicate, read-out: MIC90): > 32 µg/mL | MIC90 (A. fumigatus (R16); A. fumigatus (R16), RPMI 1640, 2% glucose, read by eye and microscopically, read-out: MIC90): > 32 µg/mL | MIC90 (A. fumigatus (R7); A. fumigatus (R7), RPMI 1640, 2% glucose, read by eye and microscopically, read-out: MIC90): > 32 µg/mL | MIC90 (C. albicans; C. albicans, RPMI 1640, 2% glucose, 37°C, duplicate, read-out: MIC90): > 32 µg/mL | MIC90 (C. glabrata; C. glabrata, RPMI 1640, 2% glucose, 37°C, duplicate, read-out: MIC90): > 32 µg/mL | MIC90 (R. arrhizus (oryzae); R. arrhizus (oryzae), RPMI 1640, 2% glucose, read by eye and microscopically, read-out: MIC90): > 32 µg/mL

CCCCCCCCN1CCC(N2CCc3ccccc3C2)CC1 [6b, 2‐(1‐Octylpiperidin‐4‐yl)‐1,2,3,4‐tetrahydroisoquinoline]
MIC (Yarrowia lipolytica; [2]): 100 µg/mL | MIC (Yarrowia lipolytica; 48 h, read-out: MIC100): 100 µg/mL

c1ccc(CN2CCC(N3CCc4ccccc4C3)CC2)cc1 [7a, 2‐(1‐Benzylpiperidin‐4‐yl)‐1,2,3,4‐tetrahydroisoquinoline]
MIC (Yarrowia lipolytica; [2]): > 100 µg/mL | MIC (Yarrowia lipolytica; 48 h, read-out: MIC100): > 100 µg/mL | MIC90 (A. fumigatus (A65)): > 32 µg/mL | MIC90 (R. microsporus): > 32 µg/mL | MIC90 (C. krusei): > 32 µg/mL | MIC90 (A. fumigatus (R16)): > 32 µg/mL | MIC90 (A. fumigatus (R7)): > 32 µg/mL | MIC90 (C. albicans): > 32 µg/mL | MIC90 (C. glabrata): > 32 µg/mL | MIC90 (R. arrhizus (oryzae)): > 32 µg/mL

C1CC[C@H]2CN(C3CCNCC3)CC[C@@H]2C1 (racemic) [4c, (±)‐2‐(Piperidin‐4‐yl)decahydroisoquinoline]
MIC (Yarrowia lipolytica; [4]): > 100 µg/mL | MIC (Yarrowia lipolytica; [5]): > 100 µg/mL
